Bounds are passed on as bounds.

In test [1] the test system is K. oxytoca UFR21 (TEM-1, CTX-M-15, OXA-48). Description: MIC of compounds alone, broth microdilution. Conditions: Klebsiella oxytoca, read-out: MIC compounds of the invention alone. It is filed as cell-based. In outline: (§1)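 MIC taken by visual inspection as lowest concentration with no growth, after 16-20 h at 35 °C in ambient air. Compounds tested alone from DMSO by CLSI broth microdilution; inoculum of log-phase cells at 5×10^5 cfu/mL in cation-adjusted Mueller-Hinton broth.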
(In general: In broth dilution the organism is exposed to a series of concentrations in liquid medium.)

Test [2] concerns K. pneumoniae 6299 (TEM-1, SHV-11, OXA-163). The test is described as follows: MIC of compounds alone, broth microdilution. In kind it is cell-based. Conditions: Klebsiella pneumoniae; strain 6299 (K. pneumoniae); read-out: MIC compounds of the invention alone. The essentials: as §1
Test [3] relates to E. coli UFR32 (TEM-1, VEB-1, OXA-10). The test is described as follows: MIC of compounds alone, broth microdilution. It is filed as cell-based. Conditions: Escherichia coli; strain UFR32 (E. coli); read-out: MIC compounds of the invention alone. The essentials: as §1
Test [4] relates to K. pneumoniae 160143 (TEM-1, SHV-1, CTX-M-15, KPC-2, OXA-1). The test is described as follows: MIC of compounds alone, broth microdilution. In kind it is cell-based. Particulars: Klebsiella pneumoniae, read-out: MIC compounds of the invention alone. In outline:
as §1

The test system of test [5] is K. pneumoniae UFR77 (CMY-2). Description: MIC of compounds alone, broth microdilution. Particulars: Klebsiella pneumoniae; strain UFR77 (K. pneumoniae); read-out: MIC compounds of the invention alone. It is filed as cell-based. In outline:
as §1

Test [6] relates to E. cloacae UFR70 (TEM-1, CTX-M-15, CMY-2, OXA-1, Porin loss). Description: MIC of compounds alone, broth microdilution. It is filed as cell-based. Conditions: Enterobacter cloacae, read-out: MIC compounds of the invention alone. In outline:
as §1

The test system of test [7] is K. pneumoniae UFR39 (CTX-M-15, NDM-1). The test is described as follows: MIC of compounds alone, broth microdilution. In kind it is cell-based. Particulars: Klebsiella pneumoniae; strain UFR39 (K. pneumoniae); read-out: MIC compounds of the invention alone. The essentials: as §1
The subject of test [8] is K. pneumoniae UFR24 (TEM-1, SHV-2, SHV-11, OXA-1, OXA-48, OXA-47). Description: MIC of compounds alone, broth microdilution. In kind it is cell-based. Particulars: Klebsiella pneumoniae; strain UFR24 (K. pneumoniae); read-out: MIC compounds of the invention alone. In outline:
as §1

For test [9], the system named is E. coli UFR18 (CTX-M-15, OXA-204). Description: MIC of compounds alone, broth microdilution. In kind it is cell-based. Conditions: Escherichia coli; strain UFR18 (E. coli); read-out: MIC compounds of the invention alone. In outline:
as §1

Test [10] concerns E. coli UFR74 (SHV-1, DHA-1). The test is described as follows: MIC of compounds alone, broth microdilution. Particulars: Escherichia coli; strain UFR74 (E. coli); read-out: MIC compounds of the invention alone. It is filed as cell-based. The essentials: as §1
The subject of test [11] is E. coli 131119 (TEM-1, OXA-48). The test is described as follows: MIC of compounds alone, broth microdilution. In kind it is cell-based. Conditions: Escherichia coli; strain 131119 (E. coli); read-out: MIC compounds of the invention alone. The essentials:
as §1

Test [12] relates to P. aeruginosa CIP107051 (TEM-24). Description: MIC of compounds alone, broth microdilution. Particulars: Pseudomonas aeruginosa; strain CIP107051 (P. aeruginosa); read-out: MIC compounds of the invention alone. In kind it is cell-based. In outline:
as §1

Test [13] deals with E. coli 190317 (TEM-1, SHV-12, CTX-M-15, OXA-1). Description: MIC of compounds alone, broth microdilution. It is filed as cell-based. Conditions: Escherichia coli, read-out: MIC compounds of the invention alone. In outline:
as §1

For test [14], the system named is K. pneumoniae BAA-1898 (TEM-1, SHV-11, SHV-12, KPC-2). Description: MIC of compounds alone, broth microdilution. Conditions: Klebsiella pneumoniae, BAA1898; strain BAA-1898 (K. pneumoniae); read-out: MIC compounds of the invention alone. In kind it is cell-based. In outline: as §1
In the next test the test system is E. cloacae P99 (AmpC). The test is described as follows: MIC of compounds alone, broth microdilution. In kind it is cell-based. Particulars: Enterobacter cloacae; strain P99 (E. cloacae); read-out: MIC compounds of the invention alone. In outline:
as §1

Test [15] has as its system E. cloacae UFR51 (SHV-12, IMP-8). Description: MIC of compounds alone, broth microdilution. Particulars: Enterobacter cloacae; strain UFR51 (E. cloacae); read-out: MIC compounds of the invention alone. It is filed as cell-based. In outline: as §1
In test [16] the test system is K. pneumoniae 200047 (TEM-1, SHV-32, CTX-M-15, OXA-1). Description: MIC of compounds alone, broth microdilution. In kind it is cell-based. Particulars: Klebsiella pneumoniae, read-out: MIC compounds of the invention alone. The essentials:
as §1

Test [17] relates to E. coli UFR61O (TEM-1, KPC-2). Description: MIC of compounds alone, broth microdilution. Particulars: Escherichia coli; strain UFR61O (E. coli); read-out: MIC compounds of the invention alone. It is filed as cell-based. In outline: as §1
In a further test the test system is E. coli RGN238 (OXA-1). Description: MIC of compounds alone, broth microdilution. It is filed as cell-based. Particulars: Escherichia coli; strain RGN238 (E. coli); read-out: MIC compounds of the invention alone. In outline:
as §1

The target in another test is AmpC P. aeruginosa (Pseudomonas aeruginosa, UniProt P24735). The test is described as follows: β-lactamase inhibitory activity, determination of IC50 (nitrocefin hydrolysis).
Chain of AmpC P. aeruginosa (P24735 27-397): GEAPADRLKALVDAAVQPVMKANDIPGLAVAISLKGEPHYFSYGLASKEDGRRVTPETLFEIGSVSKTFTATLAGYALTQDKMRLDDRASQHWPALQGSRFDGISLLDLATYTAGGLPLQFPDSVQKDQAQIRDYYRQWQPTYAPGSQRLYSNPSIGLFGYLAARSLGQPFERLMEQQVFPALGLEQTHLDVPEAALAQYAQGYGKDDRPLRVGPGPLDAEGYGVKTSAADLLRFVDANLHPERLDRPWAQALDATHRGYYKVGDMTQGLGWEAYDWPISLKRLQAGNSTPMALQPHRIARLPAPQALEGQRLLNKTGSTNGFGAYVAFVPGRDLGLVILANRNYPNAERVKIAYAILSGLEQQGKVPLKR
The target of a further test is T1, OXA-48 (Klebsiella pneumoniae, UniProt Q6XEC0).
T1 construct: made in house; host or cells: E. coli
T1 sequence (Q6XEC0 23-265 limits assumed): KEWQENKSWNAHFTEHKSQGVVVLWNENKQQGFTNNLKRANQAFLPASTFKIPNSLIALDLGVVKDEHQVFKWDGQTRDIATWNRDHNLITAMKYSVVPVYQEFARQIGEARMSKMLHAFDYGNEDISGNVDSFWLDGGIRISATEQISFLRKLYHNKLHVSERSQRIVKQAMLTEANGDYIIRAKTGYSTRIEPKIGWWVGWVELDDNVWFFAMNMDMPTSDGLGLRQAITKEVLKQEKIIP
The description is as above. In kind it is biochemical. Particulars: class (D); nitrocefin 200 μM, 30 min pre-incubation; read-out: IC50 β-lactamase OXA-48.

Another test deals with T2, TEM-1 (Escherichia coli, UniProt P62593).
T2 construct: made in house; host or cells: E. coli
T2 sequence (P62593 24-286 limits assumed): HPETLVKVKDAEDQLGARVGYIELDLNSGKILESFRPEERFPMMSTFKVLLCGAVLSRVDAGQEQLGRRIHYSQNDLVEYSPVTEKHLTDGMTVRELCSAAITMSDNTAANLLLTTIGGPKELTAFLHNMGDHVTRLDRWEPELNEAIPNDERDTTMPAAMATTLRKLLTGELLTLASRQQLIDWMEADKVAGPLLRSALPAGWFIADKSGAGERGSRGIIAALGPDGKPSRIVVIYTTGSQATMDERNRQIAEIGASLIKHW
Described as above. In kind it is biochemical.

For a further test, the target named is T3, CTX-M-15 (Escherichia coli, UniProt Q9EXV5).
T3 construct: made in house; host or cells: E. coli
T3 sequence (Q9EXV5 entry or part of it): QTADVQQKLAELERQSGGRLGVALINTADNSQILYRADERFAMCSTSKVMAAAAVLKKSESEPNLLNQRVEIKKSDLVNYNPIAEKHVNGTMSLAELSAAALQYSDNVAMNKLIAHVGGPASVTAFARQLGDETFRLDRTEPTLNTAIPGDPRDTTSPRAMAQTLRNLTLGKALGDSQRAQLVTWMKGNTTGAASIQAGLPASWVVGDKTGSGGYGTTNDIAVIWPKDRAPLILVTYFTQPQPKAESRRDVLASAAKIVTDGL
The description is as above. Conditions: class (A); nitrocefin 200 μM, 30 min pre-incubation; read-out: IC50 β-lactamase CTX-M-15. It is filed as biochemical.

Another test concerns the target T4, OXA-11 (Pseudomonas aeruginosa, UniProt Q06778).
T4 construct: made in house; host or cells: E. coli
The test is described as above. In kind it is biochemical.

For the next test, the target named is T5, KPC-2 (Klebsiella pneumoniae, UniProt Q9F663).
T5 construct: made in house; host or cells: E. coli
T5 sequence (Q9F663 25-293 limits assumed): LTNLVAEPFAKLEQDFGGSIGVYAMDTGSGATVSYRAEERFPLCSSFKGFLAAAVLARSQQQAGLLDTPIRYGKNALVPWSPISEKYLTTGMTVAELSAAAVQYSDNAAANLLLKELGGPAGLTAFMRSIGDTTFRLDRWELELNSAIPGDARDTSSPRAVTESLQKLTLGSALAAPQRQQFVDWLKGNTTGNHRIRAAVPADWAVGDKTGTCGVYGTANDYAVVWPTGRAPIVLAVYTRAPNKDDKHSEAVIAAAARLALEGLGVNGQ
Described as above. In kind it is biochemical. Particulars: class (A); nitrocefin 200 μM, 30 min pre-incubation; read-out: IC50 β-lactamase KPC-2.

A further test deals with AmpC (P99) (Enterobacter cloacae, UniProt P05364). The description is as above.
Chain of AmpC (P99) (P05364 21-381): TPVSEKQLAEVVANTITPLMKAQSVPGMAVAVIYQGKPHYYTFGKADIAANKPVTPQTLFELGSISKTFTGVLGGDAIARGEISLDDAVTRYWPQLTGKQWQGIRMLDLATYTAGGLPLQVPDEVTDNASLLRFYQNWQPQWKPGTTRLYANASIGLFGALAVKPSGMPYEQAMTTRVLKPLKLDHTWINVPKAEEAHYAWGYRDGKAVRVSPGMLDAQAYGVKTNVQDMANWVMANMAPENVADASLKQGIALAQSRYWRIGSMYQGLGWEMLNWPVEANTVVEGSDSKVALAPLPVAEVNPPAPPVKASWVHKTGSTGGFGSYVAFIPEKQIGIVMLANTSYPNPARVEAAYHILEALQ
The next test addresses T6, SHV-1 (Klebsiella pneumoniae, UniProt P0AD64).
T6 construct: made in house; host or cells: E. coli
The description is as above. In kind it is biochemical.

The target in a further test is T7, OXA-15 (Pseudomonas aeruginosa, UniProt Q51574).
T7 construct: made in house; host or cells: E. coli
T7 sequence (Q51574 22-275): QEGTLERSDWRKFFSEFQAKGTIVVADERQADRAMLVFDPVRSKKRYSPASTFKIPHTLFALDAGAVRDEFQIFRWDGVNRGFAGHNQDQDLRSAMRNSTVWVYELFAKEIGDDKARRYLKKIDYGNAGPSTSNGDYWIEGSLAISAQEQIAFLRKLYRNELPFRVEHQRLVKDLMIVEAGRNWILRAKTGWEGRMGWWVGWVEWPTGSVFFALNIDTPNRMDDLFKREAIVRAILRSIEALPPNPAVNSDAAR
The test is described as follows: biochemical.

The test system of test [18] is E. cloacae UFR51 (SHV-12, IMP-8). Description: MIC of ceftazidime (CAZ) in combination with compounds at 4 μg/mL, broth microdilution. In kind it is cell-based. Particulars: strain UFR51; MIC of CAZ with compound fixed at 4 μg/mL. As to the method: Method 2: MIC of Compounds and Synergy with Ceftazidime Against Bacterial Isolates (Table 2 and 3)
Compounds of the present invention were assessed against genotyped bacterial strains alone or in combination with the β-lactam ceftazidime (CAZ). In the assays, MICs of said compounds, or of ceftazidime at fixed concentrations of said compounds were determined by the broth microdilution method according to the Clinical Laboratory Standards Institute (CLSI-M7-A7). Briefly, compounds alone according to the invention were prepared in DMSO and spotted (2 μL each) on sterile polystyrene plates (Corning, 3788). Compounds and ceftazidime dilutions were prepared in DMSO and spotted (1 μL each) on sterile polystyrene plates (Corning, 3788). Log phase bacterial suspensions were adjusted to a final density of 5×10^5 cfu/mL in cation-adjusted Mueller-Hinton broth (Becton-Dickinson) and added to each well (98 μL). Microplates were incubated for 16-20 h at 35° C. in ambient air. The MIC of the compounds was defined as the lowest concentration of said compounds that prevented bacterial growth as read by visual inspection. The MIC of ceftazidime at each compound concentration was defined as the lowest concentration of ceftazidime that prevented bacterial growth as read by visual inspection.

A further test addresses T8, OXA-1 (Escherichia coli, UniProt P13661).
T8 construct: made in house; host or cells: E. coli
Description: β-lactamase inhibitory activity, determination of IC50 (nitrocefin hydrolysis). It is filed as biochemical. Conditions: class (D); nitrocefin 200 μM, 30 min pre-incubation; read-out: IC50 β-lactamase OXA-1.

T4 sequence (Q06778 21-266): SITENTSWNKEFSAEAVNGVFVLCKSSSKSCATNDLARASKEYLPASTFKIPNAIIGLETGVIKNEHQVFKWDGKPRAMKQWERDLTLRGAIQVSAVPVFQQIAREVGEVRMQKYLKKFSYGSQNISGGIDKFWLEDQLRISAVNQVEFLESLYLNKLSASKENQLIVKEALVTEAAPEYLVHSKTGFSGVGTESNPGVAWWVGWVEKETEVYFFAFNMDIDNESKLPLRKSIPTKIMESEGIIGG
T6 sequence (P0AD64 22-286): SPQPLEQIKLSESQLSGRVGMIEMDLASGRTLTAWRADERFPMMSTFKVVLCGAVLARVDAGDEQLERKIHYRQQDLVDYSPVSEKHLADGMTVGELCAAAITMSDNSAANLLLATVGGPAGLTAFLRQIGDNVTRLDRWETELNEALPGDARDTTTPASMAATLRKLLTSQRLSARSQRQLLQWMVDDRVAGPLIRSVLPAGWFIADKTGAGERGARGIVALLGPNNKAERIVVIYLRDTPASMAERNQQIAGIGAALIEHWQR
T8 sequence (P13661 26-276): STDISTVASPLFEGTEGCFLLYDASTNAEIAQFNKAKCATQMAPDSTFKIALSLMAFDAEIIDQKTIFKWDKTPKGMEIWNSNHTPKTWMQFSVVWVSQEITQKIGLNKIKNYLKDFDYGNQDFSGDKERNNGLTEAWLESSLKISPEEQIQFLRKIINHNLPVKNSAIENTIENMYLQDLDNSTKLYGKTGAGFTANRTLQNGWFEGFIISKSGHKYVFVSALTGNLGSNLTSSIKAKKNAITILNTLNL

The term MIC denotes the lowest concentration that inhibits growth of the organism. One may read the IC50 as the point on the concentration scale where inhibition reaches its midpoint. In the case of `O=C1N2CC(c3ccncc3)=CC(C2)N1OS(=O)(=O)[O-].[Na+]` (stereo not drawn) [Example 33, Sodium [3-(4-pyridyl)-7-oxo-1,6-diazabicyclo[3.2.1]oct-3-en-6-yl]sulfate], the MIC came to 32 µg/mL in test [1]; 16 µg/mL in [2]; 8 µg/mL in test [3]; 8 µg/mL in test [4]; 16 µg/mL in test [5]; 4 µg/mL in test [6]. The MIC in test [7] was 16 µg/mL; in test [8], 32 µg/mL; in test [9] it was 4 µg/mL; in test [10], 8 µg/mL; in [11], 4 µg/mL; in [12], over 32 µg/mL. The MIC in test [13] was 4 µg/mL; in test [14], 8 µg/mL; with E. cloacae P99 (AmpC) it was 8 µg/mL; in [15] it was 16 µg/mL; in test [16] it was 8 µg/mL; in test [17], 16 µg/mL. Besides, in the test on E. coli RGN238 (OXA-1), the MIC amounted to 4 µg/mL. Further, the IC50 amounted to 90 nM on AmpC P. aeruginosa; 12 nM at OXA-48; 1 nM at TEM-1; 0.79 nM at CTX-M-15; 210 nM at OXA-11; 9 nM at KPC-2. Besides, the IC50 came to 31 nM against AmpC (P99), 2.3 nM against SHV-1, 110 nM at OXA-15 and 690 nM at OXA-1. The “MIC combination of CAZ and compounds of the invention at 4 μg/mL” value in test [18] is over 128 µg/mL.

In the case of `O=C1N2CC(c3nc4cccnc4s3)=CC(C2)N1OS(=O)(=O)[O-].[Na+]` (stereo not drawn) [Example 40, Sodium (7-oxo-3-thiazolo[5,4-b]pyridin-2-yl-1,6-diazabicyclo[3.2.1]oct-3-en-6-yl) sulfate], the MIC (in test [2]; in test [7]; in test [12]; in [13]; in test [14]; with E. cloacae P99 (AmpC)) was over 32 µg/mL throughout. Moreover, the IC50 against AmpC P. aeruginosa came to 230 nM; on OXA-48, 2.7 nM; against TEM-1, 0.35 nM; at CTX-M-15 it was 1.2 nM; against OXA-11, 61 nM; on KPC-2 it was 2.2 nM. Further, the IC50 was 10 nM against AmpC (P99), 1.1 nM on SHV-1, 77 nM against OXA-15 and 120 nM on OXA-1.

As for `O=C1N2CC(c3ccccn3)=CC(C2)N1OS(=O)(=O)[O-].[Na+]` (stereo not drawn) [Example 42, Sodium [7-oxo-3-(2-pyridyl)-1,6-diazabicyclo[3.2.1]oct-3-en-6-yl]sulfate], the MIC in test [2] was over 32 µg/mL; in [7] it was 32 µg/mL; in test [12], over 32 µg/mL; in test [13] it was 16 µg/mL; in [14] it was 32 µg/mL; with E. cloacae P99 (AmpC), over 32 µg/mL. Moreover, the IC50 against AmpC P. aeruginosa was determined as 75 nM; at OXA-48, 31 nM; on TEM-1 it was 2.4 nM; on CTX-M-15, 0.89 nM; at OXA-11 it was 120 nM; on KPC-2, 8 nM. For the same compound, the IC50 turned out to be 25 nM against AmpC (P99), 2.9 nM against SHV-1, 370 nM on OXA-15 and 640 nM on OXA-1.

With `O=C1N2CC(c3cn[nH]c3)=CC(C2)N1OS(=O)(=O)[O-].[Na+]` (stereo not drawn) [Example 43, Sodium [7-oxo-3-(1H-pyrazol-4-yl)-1,6-diazabicyclo[3.2.1]oct-3-en-6-yl] sulfate], the MIC (in [2]; in test [7]; in [12]; in test [13]; in test [14]; in the test on E. cloacae P99 (AmpC)) was over 32 µg/mL each time. For the same compound, the IC50 on AmpC P. aeruginosa amounted to 440 nM; at OXA-48, 9.4 nM; against TEM-1 it was 0.77 nM; at CTX-M-15, 2.9 nM; at OXA-11, 370 nM; at KPC-2, 30 nM. Also, the IC50 on AmpC (P99) came out at 180 nM; against SHV-1, 1.7 nM; at OXA-15, 540 nM; at OXA-1, 1200 nM.

Values taken from patent publication US10183943B2, “Heterocyclic compounds and their use in preventing or treating bacterial infections” (MUTABILIS, priority 2015, dated 2019).
